Laboratory results as given in patent publication US6825230B2, “Spiro and dispiro 1,2,4-trixolane antimalarials” (Medicines for Malaria Venture MMV, priority 2002, dated 2004).
Values after ≈ are worked out from the molar mass of the structure shown. Read-outs that look alike come from different tables or passages of the source.

How the values were obtained:
[1] = test system: ANKA strain of Plasmodium berghei; test: Single dose ED50/ED90/ED99 determination in infected mice; format: in vivo
In short: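 Moro SPF or NMRI mice (three per group) infected with P. berghei ANKA were dosed once on day 1 post-infection in SSV (0.5% CMC, 0.5% benzyl alcohol, 0.4% Tween 80, 0.9% NaCl). Parasitemia reduction was scored on day 3; ED values (mg/kg) came from nonlinear fitting.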

[2] = test system: P. berghei ANKA strain; test: Divided 3x3 mg/kg and 3x1 mg/kg po doses in infected mice; format: in vivo, Plasmodium berghei; conditions: for Cures: 3 mg/kg, 720 h
In short: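 Male NMRI mice were infected i.v. with 2×10^7 P. berghei-parasitized erythrocytes on day 0, then dosed orally in SSV vehicle on days 1, 2 and 3 post-infection.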

[3] = test system: ANKA strain of P. berghei; test: Single dose STI in vivo screen in infected mice; set-up: species or system Plasmodium berghei; conditions: for Survival (days) 3 mg/kg SSV po / Activity (%) 3 mg/kg SSV po: single 3 mg/kg po in SSV; for Activity (%) 3 mg/kg SSV po / Activity (%) 10 mg/kg SSV po: percent reduction in parasitemia on day 3; for Survival (days) 10 mg/kg SSV po: single 10 mg/kg po in SSV, untreated 6-7 days; for Activity (%) 10 mg/kg SSV po: single 10 mg/kg po in standard suspending vehicle (SSV) on day 1 post-infection
[4] = test system: Schistosoma mansoni 21-day-old schistosomules; test: Effect on 21-day-old schistosomules in infected mice; format: in vivo; conditions: po, 200 mg/kg, 504 h
Method: Mice were infected with 100 Schistosoma mansoni cercariae on day 21 post-treatment. Each group was treated per os with trioxolanes at a single dose of 200 mg/kg. […] All groups were killed 4 weeks after treatment and the liver and intestine were removed and separated. The liver and intestine were compressed and alive male and female worms could be seen and counted. The effect of the compounds was evaluated by mean total and female worm burden.

[5] = test system: Schistosoma japonicum; test: Effect in mice infected with Schistosoma japonicum; format: in vivo; conditions: age of worm 35 days, 400 mg/kg x 1
[6] = test system: P. berghei ANKA strain; test: Onset of action and recrudescence experiment, single 100 mg/kg po; format: in vivo, Plasmodium berghei; conditions: single 100 mg/kg po (SSV) on day +3 post-infection; recrudescence = >5% parasitemia; followed up to 60 days; groups of five
Method: The onset of drug action was determined after a single fixed dose of 100 mg/kg (SSV vehicle) po to groups of five animals on day +3 post-infection (day 0).
(§1) Moro NMRI male mice (Fu Albino specific pathogen free) weighing 18±2 g were infected intravenously (i.v.) with 2×10^7 P. berghei ANKA strain-infected erythrocytes from donor mice on day 0 of the experiment. From donor mice with circa 30% parasitemia, heparinized blood was taken and diluted in physiological saline to 10^8 parasitized erythrocytes per ml. An aliquot (0.2 ml) of this suspension was injected i.v. into experimental and control groups of mice. […] Throughout the experiments, mice were kept in groups of three or five animals in Makrolon type II cages in an air-conditioned animal room at 22 to 23° C.

[7] = test system: P. berghei ANKA strain; test: Prophylactic activity, single 100 mg/kg po at various times before infection; format: in vivo, Plasmodium berghei; conditions: for Prophylactic Activity (%) 24 h: single 100 mg/kg po 24 h before infection; for Prophylactic Activity (%) 0 h: single 100 mg/kg po at 0 h
Method: as §1
Prophylactic activities of the compounds were compared after administering po single dose of 100 mg/kg to different groups of five animals at various times before infection. All groups including an untreated control group, were then infected at the same time. Parasitemia was determined for each animal on day 3 post-infection, and percent of reduction of the level of parasitemia compared to levels for animals given no drug is determined.

[8] = test system: Schistosoma mansoni adult worms (49-day-old); test: Effect on adult schistosomes (49-day-old) in infected mice; format: in vivo
Method: Mice were infected with 100 Schistosoma mansoni cercariae on day 49 post-treatment. Each group was treated per os with OZ compounds at single doses of 200, 400, and 600 mg/kg. Untreated mice served as the control. All groups were killed 4 weeks after treatment and the liver and intestine were removed and separated. The liver and intestine were compressed and alive male and female worms could be seen and counted.

[9] = test system: chloroquine-resistant K1 strain of P. falciparum; test: In vitro antimalarial semiautomated microdilution assay ([3H]-hypoxanthine incorporation), K1 strain; format: cell-based, Plasmodium falciparum; conditions: Plasmodium falciparum; chloroquine-resistant K1 strain, 72 h incubation; read-out: IC50 (ng/ml) K1
In short: (§2)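 IC50 comes from Logit regression of [3H]-hypoxanthine incorporation data. Intraerythrocytic P. falciparum taken from asynchronous stock cultures is exposed to OZ compounds in a semiautomated microdilution format.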

[10] = test system: chloroquine-sensitive NF54 strain of P. falciparum; test: In vitro antimalarial semiautomated microdilution assay ([3H]-hypoxanthine incorporation), NF54 strain; format: cell-based, Plasmodium falciparum; conditions: Plasmodium falciparum; chloroquine-sensitive NF54 strain, 72 h incubation; read-out: IC50 (ng/ml) NF54
In short: as §2

[11] = test system: P. berghei ANKA strain; test: Divided 3x10 mg/kg vs single 1x30 mg/kg po dose in infected mice; format: in vivo, Plasmodium berghei; conditions: for Survival (days) 3 × 10 mg/kg p.o. SSV / Activity (%) 3 × 10 mg/kg p.o. SSV: 10 mg/kg po on days 1, 2, 3 post-infection; for Activity (%) 3 × 10 mg/kg p.o. SSV / Activity (%) 1 × 30 mg/kg p.o. SSV: parasitemia reduction on day 4; for Survival (days) 1 × 30 mg/kg p.o. SSV / Activity (%) 1 × 30 mg/kg p.o. SSV: single 30 mg/kg po on day 1 post-infection; for Cures 1 × 30 mg/kg p.o. SSV: single 30 mg/kg po
Method: as §1
They were administered per os (p.o.) in a total volume of 0.01 ml per gram of mouse. The activity of the compound was determined by a variety of methods outlined in subsequent sections. Survival time was also recorded, and survival to day 30 post-infection was considered to be a cure.
The first experiment conducted consisted of administration of a divided 3×10 mg/kg p.o. dose administered on days 1, 2, and 3 post-infection vs. a single 1×30 mg/kg po dose administered on day 1 post-infection. On day 4 post-infection, blood smears of all animals were prepared and stained with Giemsa. […] Compounds were administered orally in the SSV vehicle.

[12] = Pharmacokinetics in rats (IV and oral dosing); conditions: in vivo; for half-life / bioavailability: rat
Description: (§3) Artesunate is listed as a reference compound.

[13] = Pharmacokinetics in dogs (IV and oral dosing); conditions: in vivo, dog; for bioavailability: some values marked (V), not defined
Description: as §3

[14] = Plasmodium berghei, single dose po in SSV on day 1 post-infection, parasitemia day 3, nonlinear fitting, read-out: ED50
[15] = single dose po in SSV on day 1 post-infection, parasitemia day 3, nonlinear fitting
[16] = 3 × 1 mg/kg p.o. SSV on days 1, 2, 3 post-infection
[17] = 3 × 3 mg/kg p.o. SSV on days 1, 2, 3 post-infection
[18] = 3 × 3 mg/kg p.o. SSV on days 1, 2, 3 post-infection, percent reduction of parasitemia vs control on day 4
[19] = parasitemia reduction on day 3 post-infection
[20] = cure = survival to day 30 post-infection

Row | SMILES | ED50 [1, 14] [mg/kg] | ED90 ([1]; po) [mg/kg] | ED99 [1, 15] [mg/kg] | Survival [2, 16] [days] | Survival [2, 17] [days] | Activity (%) [2, 18] [%] | Activity (%) ([2]; po, 1 mg/kg, 96 h) | Cures ([2]; po) | Survival (days) 3 mg/kg SSV po [3] [days] | Activity (%) 3 mg/kg SSV po [3] [%] | Survival (days) 10 mg/kg SSV po [3] [days] | Activity (%) 10 mg/kg SSV po [3] [%] | Time of Recrudescence [6] [days] | Prophylactic Activity (%) 24 h [7, 19] [%] | Prophylactic Activity (%) 0 h [7, 19] [%] | Survival (days) 3 × 10 mg/kg p.o. SSV [11] [days] | Activity (%) 3 × 10 mg/kg p.o. SSV [11] [%] | Survival (days) 1 × 30 mg/kg p.o. SSV [11] [days] | Activity (%) 1 × 30 mg/kg p.o. SSV [11] [%] | Cures 1 × 30 mg/kg p.o. SSV [11, 20] | further results
1 | CO[C@H]1O[C@@H]2O[C@@]3(C)CC[C@H]4[C@H](C)CC[C@@H]([C@H]1C)[C@@]24OO3 [AM, artemether, reference compound] | 2.2 | 4.2 | 7.1 | 7.2 | 9.4 | 86 | 51 | 0\5 | 8.7 | 79 | 9.4 | 99.75 | 12.0 | 0 | 100 |  |  |  |  |  | % reduction of schistosomule growth at day 21 after per os application of 200 mg/kg, FWR (%) [4]: (n2) 78%; % reduction of schistosomule growth at day 21 after per os application of 200 mg/kg, TWR (%) [4]: (n2) 81%; Mice without female worm [5]: 0/7; MFWB (mean female worm burden) x ± SD ([5]; control 11.6 ± 2.4): 3.4 ± 1.6; MTWB (mean total worm burden) x ± SD ([5]; control 26.6 ± 4.2): 10.1 ± 4.4; % reduction of adult worms growth at day 49 after per os application of 400 mg/kg, TWR (%) ([8]; po, 400 mg/kg, 1176 h): 53%; Adult worms day 49, per os 400 mg/kg, DEAD WORM (%) ([8]; po, 400 mg/kg, 1176 h): 29%; IC50 [9]: 0.45 ng/mL (≈ 1.51 nM); IC50 [10]: 0.36 ng/mL (≈ 1.21 nM)
2 | C[C@H]1[C@H](OC(=O)CCC(=O)O)O[C@@H]2O[C@@]3(C)CC[C@H]4[C@H](C)CC[C@@H]1[C@@]24OO3 [AS, artesunate, reference compound] |  |  | 60 | 6.8 | 9.4 | 78 |  |  | 8.0 | 66 | 7.0 | 87 | 8.6 | 6.28 | 92.44 | 11 | 98.62 | 9 | 83.83 | 0/5 | ED50 [1, 15]: 4.7 mg/kg; ED90 [1, 15]: 19 mg/kg; Activity (%) ([2]; 3 × 1 mg/kg p.o. SSV on days 1, 2, 3 post-infection, percent reduction of parasitemia vs control on day 4): 39%; Cures 3 × 10 mg/kg p.o. SSV ([11]; 10 mg/kg po on days 1, 2, 3, cure = survival to day 30 post-infection): 0/5; Rat Oral Bioavailability 25 mg/kg (DHA) ([12]; po, 25 mg/kg): 21%
3 | CC(C)(N)CNC(=O)C[C@H]1CC[C@]2(CC1)OO[C@]1(O2)C2CC3CC(C2)CC1C3 [OZ277] | 0.78 | 2.0 | 4.4 | 9.4 | 14 | 100 | 83 | 0\5 | 9.6 |  | 9.3 |  | 13.0 | 25 | 100 | 27.6 | 100 | 10.4 | 99.92 | 0/5 | half-life ([13]; IV 10 mg/kg): 1.58 h; half-life ([13]; oral 10 mg/kg): 2.47 h; bioavailability ([13]; oral 10 mg/kg, read-out: Dog Oral Bioavailability 10 mg/kg): 87.9%; bioavailability ([13]; oral 25 mg/kg, read-out: Dog Oral Bioavailability 25 mg/kg): 96.1%; Prophylactic Activity (%) 72 h ([7]; po, 100 mg/kg): 9%; Prophylactic Activity (%) 48 h ([7]; single 100 mg/kg po 48 h before infection, parasitemia reduction on day 3 post-infection): 7%; half-life ([12]; IV 10 mg/kg): 1.29 h; half-life ([12]; oral 25 mg/kg): 1.51 h; bioavailability ([12]; po, 10 mg/kg): 36.9%; bioavailability ([12]; po, 25 mg/kg): 44.1%; % reduction of adult worms growth at day 49 after per os application of 400 mg/kg, TWR (%) ([8]; single 400 mg/kg per os, 49-day-old adults, total worm reduction rate): 0/0%; Adult worms day 49, per os 400 mg/kg, DEAD WORM (%) ([8]; single 400 mg/kg per os, percentage of dead worm in the liver): 0/0%
